Read-outs that look alike come from different tables or passages of the source.
Columns and labels:
mast cells = experiment: Histamine release assay (compound 48/80 stimulated mast cells); type: cell-based, Wistar rats; settings: 2 × 10^−5 M, rat peritoneal mast cells; for inhibition at 20 µM: Rattus norvegicus, Mast cell, read-out: Percentage Inhibition of Histamine Release
Procedure: (§1) The compounds were assessed for their ability to stabilize mast cell membranes in vitro. Mast cells treated with the compounds and un-treated mast cells were stimulated to release histamine. A reduction in histamine release by the treated cells compared to the untreated cells indicates stabilisation of the membrane. The compounds were assessed for their ability to relax smooth muscle in vitro. Intestinal smooth muscle was stimulated to contract, using calcium chloride and subsequently treated with the compounds, relaxation of the contraction was measured for each compound. The effects of the compounds were also studied on relaxation of guinea-pig tracheal muscle. In the rat paw oedema test, the drugs were administered systemically prior to inducing inflammation by the injection of carageenan below the plantar aponeurosis of the hind paw. The volume of the paw was determined both before and after treatment as an index of oedema. In the mouse ear oedema test, the drugs were administered topically prior to inducing inflammation by the topical application of arachidonic acid. The width of the ear was determined both before and after treatment as an index of oedema.
The buffered salt solution (BSS) was prepared in advance (NaCl 137 mM; KCl 2.7 mM; MgCl2 1.0 mM; CaCl2 0.5 mM, NaH2PO4 0.4 mM; Glucose 5.6 mM; HEPES 10 mM). This was dispensed into test tubes and heated to 37° C., each test tube contained 4.5 ml BSS. The solvent blank was supplemented with 0.5% (v/v) dimethyl sulphoxide (DMSO) or 0.5% (v/v) distilled water (dH2O). The two positive controls were supplemented with 0.5% (v/v) dH2O/2×10^−5M disodium cromoglycate (DSCG) and 0.5% (v/v) DMSO/2×10^−5M DSCG. The test compounds' incubation tubes contained 2×10^−5M test compound/0.5% (v/v) DMSO. The basal release, maximum release and total histamine content incubation tubes contained no additions.
Female Wistar rats (200-300 g) were killed in an atmosphere of saturated CO2. Pre-warmed BSS (10 ml) was injected i.p. and the abdomen was massaged for 3 min. The BSS, with suspended mast cells and other cells, was aspirated following a mid-line incision. The aspirate was centrifuged for 5 min at 400 g and the supernatant removed. The cells were re-suspended in BSS, at 4° C., and centrifuged as before the cells were washed in this manner a total of three times. Following the final wash, the pelleted cells were stored at 4° C., for use as soon as possible.
The cells were re-suspended in 7 ml BSS. From this, 0.5 ml aliquots were transferred to each of the incubation tubes. After 10 min at 37° C. with gentle agitation, Compound 48/80 was added to a final concentration of […], in order to stimulate histamine release. The cell stimulation was stopped after 2 min by the addition of 0.5 ml ice cold BSS, the incubation tubes were transferred to an ice bath. The cell suspensions were centrifuged for 5 min at 400 g. The “total histamine content” tube was placed at 100° C. for 2 min prior to centrifugation. The supernatants were retained for histamine assay.
To 2 ml of supernatant from each tube was added 0.4 ml of 1M NaOH and 0.1 ml oPT (1% (w/v) in methanol). This was incubated at room temperature for 4 min. The reaction was stopped by the addition of 0.2 ml of 3M HCl. The supernatant from each incubation tube was assayed in duplicate and run simultaneously with a standard curve in the range 0-1000 ng/ml. The presence of the fluorescent product of the reaction was measured using a Shimazu RF-1501 spectrofluorophotometer set at λex=360 nm, λem=450 nm.
Each drug was tested on at least five animals (n=5). The results were expressed as a percentage of maximum, compound 48/80 induced, histamine release in the solvent blank sample. Each drug was compared to DSCG on the same tissues. The basal histamine release in untreated cells was noted, expressed as a percentage of the total histamine content of the cells in suspension. […]

trachea = experiment: Smooth muscle effects: spontaneous tone of tracheal sections; design: species or system Guinea pigs; settings: guinea pig trachea, percentage relaxation; for inhibition at 3 µM / inhibition at 10 µM: Cavia porcellus
Procedure: as §1
(§2) Guinea pigs (350 g approx.), of either sex, were killed in an atmosphere of saturated CO2. The abdomen was opened by a mid-line incision and the small intestine was removed. The trachea was removed and sectioned between the cartilage rings, which were then split through.
(§3) Segments of ileum (1-1.5 cm) were suspended in a high potassium, no calcium Krebs buffer (NaCl 160.44 mM); KCl 45 mM; MgCl2 0.54 mM; NaH2PO4 0.89 mM; NaH2CO3 24.9 mM; Glucose 11.1 mM). Tracheal sections were suspended in normal Krebs buffer (NaCl […]; KCl 4.7 mM; CaCl2 2.5 mM; MgCl2 0.54 mM; NaH2PO4 0.89 mM; NaHCO3 24.9 mM; Glucose 11.1 mM). The solutions were maintained at 37° C. by a jacketed organ bath and gassed with 95% O2 and 5% CO2. The tissues were anchored by thread to the bottom of the organ bath and suspended from force displacement transducers under a resting tension of 1 g approx. in the case of ileum and 4 g approx. in the case of trachea. Isotonic contractions were recorded using a MacLab/4e system in conjunction with the Chart 3.3.1 software package. Surplus tissue was stored at 4° C. in Krebs buffer, for a maximum of 48 hours.
(§4) Four segments of tissue were suspended and observed concurrently. Contractions were initiated by the addition of 25 μl of 1M CaCl2 (a final concentration of 2.5 mM). The contractions stabilized with time, 10-15 min, and could be maintained for up to 45 min. from the addition of the CaCl2. The tracheal sections were allowed to develop spontaneous resting tension over a period of 30 mins.
(§5) Stock solutions of drug were prepared at 10^−3M in 50% (v/v) DMSO. These were diluted to give; 10^−4M in 5% (v/v) DMSO and 10^−5M in 0.5% (v/v) DMSO. In cases of poor solubility the 10^−3M stock was made up in higher concentrations of DMSO. Solvent ‘blank’ solutions were prepared containing 50%, 5% and 0.5% (v/v) DMSO (or as appropriate). A cumulative dose-response assay was carried out in the range 5×10^−8M to 10^−5M. A second cumulative dose-response assay was carried out using DMSO ‘blank’ solutions only.
(§6) Each drug was tested, in duplicate, on at least three different animals (n=3). The results were expressed as percentage inhibition of the CaCl2 induced contraction in the case of ideal tissue and percentage relaxation in the case of tracheal tissue, for each tissue, at each concentration of drug in DMSO. The effect of DMSO, for each tissue at each concentration, was subtracted from the effect of the drug in DMSO, to give the effect of the drug alone. A log dose vs. response curve was plotted for each drug using the mean and the standard error of the mean for the cumulated results.

ileum = experiment: Smooth muscle effects: CaCl2 induced contractions of ileum; design: species or system Guinea pigs; settings: for inhibition at 10 µM / inhibition at 0.03 µM / inhibition at 0.1 µM / inhibition at 0.3 µM / inhibition at 1 µM / inhibition at 3 µM: Cavia porcellus, read-out: Percentage Inhibition of CaCl2 Induced Contractions
Procedure: as §1, §2, §3, §4
as §5, with “A cumulative dose-response assay was carried out in the range 5×10^−8M to 10^−5M.” left out
as §6

mouse ear oedema = experiment: Mouse ear oedema model (arachidonic acid induced); type: in vivo, Laca mice; settings: 300 μg per ear topically 30 min prior to 400 μg arachidonic acid; 1 hour after arachidonic acid; n=4
Procedure: as §1
The mouse ear oedema model was performed using Laca mice (25-35 g), of either sex. The animals were sedated with fentanyl/fluanisone (Hypnorm, Janssen). One ear was treated by the topical application of one of a range of test compounds, indomethacin or dexamethasone (all at 300 μg ear in acetone) drug. After 30 min, oedema was induced by the topical application of arachidonic acid (10 μl at […] in acetone). The thickness of each ear was measured, both before and 60 min after the induction of oedema, using a micrometer screw gauge. Ear oedema was calculated by comparing the ear width before and after induction of oedema and expressed as percentage normal.
Responses of the mouse ear to single doses of a range of compounds compared to the response to indomethacin and dexamethasone, each at a dose of 300 μg per ear administered topically 30 min prior to administration of 400 μg of arachidonic acid. Values are expressed as the percentage increase in ear thickness 1 hour after administration of arachidonic acid (all n=4, solvent controls (n=8)).

[1] = 3 × 10^−6 M, guinea pig ileum, DMSO effect subtracted
[2] = 10^−5 M, guinea pig ileum, DMSO effect subtracted

Row | Compound | inhibition at 20 µM (mast cells) [%] | inhibition at 3 µM (trachea; 3 × 10^−6 M) [%] | inhibition at 10 µM (trachea; 10^−5 M) [%] | inhibition at 10 µM (ileum; [2]) [%] | percentage increase in ear thickness (Mean %) (mouse ear oedema) [%] | inhibition at 3 µM (ileum; [1]) [%] | other results
1 | C=CCN(C1CC(=O)c2ccccc21)[C@H]1CCc2ccccc21 (stereo partly drawn) [5C6 BS] | – | – | – | – | – | – | Percentage Inhibition of Histamine Release (mast cells): 80.29%; Percentage Inhibition of Spontaneous Tone (trachea; 3 × 10^−6 M): 2.03%; Percentage Inhibition of Spontaneous Tone (trachea; 10^−5 M): 4.09%; Percentage Inhibition of CaCl2 Induced Contractions (ileum; [1]): 13.66%; Percentage Inhibition of CaCl2 Induced Contractions (ileum; [2]): 31.47%
2 | C=CCN(C1CC(=O)c2ccccc21)[C@H]1CCc2ccccc21 (stereo partly drawn) [5C6 TS] | 75.2 | 1.63 | 2.71 | 19.4 | – | – | Percentage Inhibition of CaCl2 Induced Contractions (ileum; [1]): 5.29%
3 | C=CCN(C1CCc2ccccc21)C1CC(=O)c2ccccc21 (stereo not drawn) [Compound 5C6, 3-(N-prop-2-enyl-N-1-indanylamino)-indan-1-one] | – | – | – | – | 52.0 | – | Percentage Inhibition of Histamine Release (mast cells): 77.77%; inhibition at 0.03 µM (ileum): -1%; inhibition at 0.1 µM (ileum): 0.02%; inhibition at 0.3 µM (ileum): 0.36%; inhibition at 1 µM (ileum): 1.31%; inhibition at 3 µM (ileum): 8.84%; inhibition at 10 µM (ileum): 20.9%
4 | CC(=O)N(C1CCc2ccccc21)C1CC(=O)c2ccccc21 (stereo not drawn) [Compound 5C9, N-1-Indanyl-N-3-indan-1-onylethanamide] | 14.3 | 2.64 | 2.38 | 18.3 | – | 9.06 | –
5 | CN(C1Cc2ccccc2C1)C1CC(=O)c2ccccc21 (stereo not drawn) [Compound 6C6, 3-(N-methyl-N-2-indanylamino)-indan-1-one] | 68 | – | – | 22.9 | 73.0 | 12.6 | inhibition at 0.3 µM (ileum; 3 × 10^−7 M, guinea pig ileum, DMSO effect subtracted): 4.64%; inhibition at 0.03 µM (ileum; 3 × 10^−8 M, guinea pig ileum, DMSO effect subtracted): 0.15%; inhibition at 1 µM (ileum; 10^−6 M, guinea pig ileum, DMSO effect subtracted): 9.01%; inhibition at 0.1 µM (ileum; 10^−7 M, guinea pig ileum, DMSO effect subtracted): 2.75%
6 | C=CCN(C1Cc2ccccc2C1)C1CC(=O)c2ccccc21 (stereo not drawn) [Compound 6C7, 3-(N-prop-2-enyl-N-2-indanylamino)-indan-1-one] | 89.5 | – | – | – | 71.5 | – | inhibition at 0.03 µM (ileum): 1.16%; inhibition at 0.1 µM (ileum): 3.15%; inhibition at 0.3 µM (ileum): 4.52%; inhibition at 1 µM (ileum): 5.36%; inhibition at 3 µM (ileum): 10.7%; inhibition at 10 µM (ileum): 21.8%
7 | Cc1ccc(S(=O)(=O)N(C2Cc3ccccc3C2)C2CC(=O)c3ccccc32)cc1 (stereo not drawn) [Compound 6C10, N-2-Indanyl-N-3-indan-1-onyl-p-toluenesulfonamide] | 51.1 | -0.75 | 0.5 | – | – | – | –
8 | CC(=O)N(C1Cc2ccccc2C1)C1CC(=O)c2ccccc21 (stereo not drawn) [Compound 6C11, N-2-Indanyl-N-3-indan-1-onylethanamide] | 4.26 | – | – | 12.5 | 26.0 | 8 | –
9 | C[C@@H]1C[C@H]2[C@@H]3CCC4=CC(=O)C=C[C@]4(C)[C@@]3(F)[C@@H](O)C[C@]2(C)[C@@]1(O)C(=O)CO [Dexamethasone, reference compound] | – | – | – | – | 37.9 | – | –
10 | COc1ccc2c(c1)c(CC(=O)O)c(C)n2C(=O)c1ccc(Cl)cc1 [Indomethacin, reference compound] | – | – | – | – | 39.6 | – | –

— patent publication US6423752B1, “Indane dimer compounds with smooth muscle relaxing and/or mast cell stabilizing and/or anti-inflammatory activity” (Venantius Limited, priority 1995, dated 2002)
